Results reported in patent publication EP4644396A1 (Visionpharma (Nantong) Co., Ltd, priority 2022, dated 2024).
Like-named read-outs stand apart in the source and are kept apart here.

Columns and labels:
human TLR8 = target: T1, human TLR8 (Homo sapiens, UniProt Q9NR97); assay: HEK-Blue hTLR8 SEAP reporter gene inhibition assay; type: cell-based
T1 construct: expressed in transfected cells
T1 sequence (Q9NR97 27-1041): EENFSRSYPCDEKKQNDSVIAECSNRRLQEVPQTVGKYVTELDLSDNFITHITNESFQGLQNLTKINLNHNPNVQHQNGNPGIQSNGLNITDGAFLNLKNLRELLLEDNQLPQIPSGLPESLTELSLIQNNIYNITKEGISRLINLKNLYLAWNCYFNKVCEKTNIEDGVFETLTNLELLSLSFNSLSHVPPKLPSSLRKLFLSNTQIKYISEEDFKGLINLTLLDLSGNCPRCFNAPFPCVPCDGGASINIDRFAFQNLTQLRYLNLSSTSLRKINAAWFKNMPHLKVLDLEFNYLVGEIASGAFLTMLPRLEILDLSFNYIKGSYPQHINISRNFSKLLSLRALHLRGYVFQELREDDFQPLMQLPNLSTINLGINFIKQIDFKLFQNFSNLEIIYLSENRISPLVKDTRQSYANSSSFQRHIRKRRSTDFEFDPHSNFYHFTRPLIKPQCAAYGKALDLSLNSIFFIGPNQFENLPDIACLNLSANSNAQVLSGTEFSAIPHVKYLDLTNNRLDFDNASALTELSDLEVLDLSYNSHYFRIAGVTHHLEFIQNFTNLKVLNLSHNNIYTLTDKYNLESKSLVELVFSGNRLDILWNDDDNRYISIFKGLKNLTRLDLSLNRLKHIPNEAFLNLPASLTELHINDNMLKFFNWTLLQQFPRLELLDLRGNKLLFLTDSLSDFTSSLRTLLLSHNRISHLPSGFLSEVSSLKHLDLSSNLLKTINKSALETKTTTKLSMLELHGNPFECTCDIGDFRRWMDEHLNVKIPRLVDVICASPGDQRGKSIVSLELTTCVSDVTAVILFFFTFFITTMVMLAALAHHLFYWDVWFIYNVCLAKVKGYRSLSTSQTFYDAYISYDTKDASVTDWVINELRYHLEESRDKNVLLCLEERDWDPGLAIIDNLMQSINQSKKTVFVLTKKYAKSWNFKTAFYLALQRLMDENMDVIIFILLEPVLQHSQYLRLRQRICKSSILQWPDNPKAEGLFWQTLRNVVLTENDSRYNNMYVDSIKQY
In short: (§1)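 Compounds (final 0.001–36 µM) were added 15 min before stimulation with 10 µM TLR7 agonist Gardiquimod or 10 µM TLR8 ligand for 20 h. Read-out: SEAP from NF-κB/AP-1 reporter in hTLR7 (80,000 cells/well) or hTLR8 (60,000 cells/well) HEK-Blue cells, via Quanti-Blue; IC50 derived.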

human TLR7 = target: T2, human TLR7 (Homo sapiens, UniProt Q9NYK1); assay: HEK-Blue hTLR7 SEAP reporter gene inhibition assay; type: cell-based
T2 sequence (Q9NYK1 27-1049): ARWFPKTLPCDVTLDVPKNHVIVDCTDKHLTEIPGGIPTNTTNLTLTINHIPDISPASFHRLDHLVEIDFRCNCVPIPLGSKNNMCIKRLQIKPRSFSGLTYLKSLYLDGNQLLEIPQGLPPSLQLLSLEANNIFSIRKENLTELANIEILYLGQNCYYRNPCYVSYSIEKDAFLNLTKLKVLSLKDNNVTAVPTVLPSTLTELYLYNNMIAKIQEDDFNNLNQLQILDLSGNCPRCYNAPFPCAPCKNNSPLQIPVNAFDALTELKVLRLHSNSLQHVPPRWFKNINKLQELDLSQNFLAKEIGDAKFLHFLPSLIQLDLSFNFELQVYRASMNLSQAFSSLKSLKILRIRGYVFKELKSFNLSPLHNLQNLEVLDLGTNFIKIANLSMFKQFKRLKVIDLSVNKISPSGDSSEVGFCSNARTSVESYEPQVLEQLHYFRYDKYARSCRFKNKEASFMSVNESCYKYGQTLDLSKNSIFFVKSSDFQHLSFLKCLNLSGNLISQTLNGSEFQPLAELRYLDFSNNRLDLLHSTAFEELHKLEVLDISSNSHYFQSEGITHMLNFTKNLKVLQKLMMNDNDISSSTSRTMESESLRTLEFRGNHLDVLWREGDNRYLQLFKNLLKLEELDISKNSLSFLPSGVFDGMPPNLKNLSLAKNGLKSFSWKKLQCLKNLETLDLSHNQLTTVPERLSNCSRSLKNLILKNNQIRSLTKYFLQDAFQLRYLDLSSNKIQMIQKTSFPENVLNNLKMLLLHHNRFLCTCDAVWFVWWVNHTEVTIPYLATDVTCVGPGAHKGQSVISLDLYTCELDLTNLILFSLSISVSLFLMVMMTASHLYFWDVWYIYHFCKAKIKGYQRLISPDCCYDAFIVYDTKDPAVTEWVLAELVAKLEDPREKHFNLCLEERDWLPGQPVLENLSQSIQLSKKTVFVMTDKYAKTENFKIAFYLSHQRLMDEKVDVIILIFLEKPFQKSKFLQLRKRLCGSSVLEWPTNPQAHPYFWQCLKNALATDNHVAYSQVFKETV
In short: as §1

[1] = hTLR8 HEK-Blue cells, TLR8 ligand 10 µM, 20 hours, SEAP by Quanti-blue, class symbols, read-out: HEK-Blue hTLR8 IC50
[2] = hTLR7 HEK-Blue cells, TLR7 ligand Gardiquimod 10 µM, 20 hours, SEAP by Quanti-blue, class symbols, read-out: HEK-Blue hTLR7 IC50

Row | SMILES | IC50 (human TLR8; [1]) | IC50 (human TLR7; [2]) | also measured
1 | C[C@@H]1CN(c2ccc(C#N)n3ncc(F)c23)Cc2c3c(nn21)CNC(C)(C)C3 [Example I-83, (R)-3-Fluoro-4-(4,9,9-trimethyl-3,4,7,8,9,10-hexahydropyrido[3',4':3,4]pyrazolo [1,5-a]pyrazin-2(1H)-yl)pyrazolo[1,5-a]pyridine-7-carbonitrile] | < 0.1 µM | < 0.05 µM | –
2 | C[C@H]1NCCc2c1nn1c2CN(c2ccc(C#N)n3ncc(F)c23)C[C@H]1CF [Example I-87, 3-Fluoro-4-((4S,7R)-4-(fluoromethyl)-7-methyl-3,4,7,8,9,10-hexahydropyrido [3',4':3,4]pyrazolo[1,5-a]pyrazin-2(1H)-yl)pyrazolo[1,5-a]pyridine-7-carbonitrile] | < 0.1 µM | < 0.05 µM | –
3 | C[C@@H]1CN(c2ccc(C#N)n3ncc(F)c23)Cc2c3c(nn21)CNC(c1cnn(C)c1)C3 (stereo partly drawn) [Example I-91, 3-Fluoro-4-((4R)-4-methyl-9-(1-methyl-1H-pyrazol-4-yl)-3,4,7,8,9,10-hexahydropyrido[3',4':3,4]pyrazolo[1,5-a]pyrazin-2(1H)-yl)pyrazolo[1,5-a]pyridine-7-carbonitrile] | < 0.1 µM | < 0.05 µM | –
4 | C[C@@H]1CN(c2ccc(C#N)n3ncc(F)c23)Cc2c3c(nn21)CN1C(=O)OC[C@@H]1C3 [Example I-95, 3-Fluoro-4-((8R,12aS)-8-methyl-3-oxo-1,8,9,11,12,12a-hexahydro-3H,5H,10H-oxazolyl [3 ‴,4 ':1'6']pyridine and [3',4':3,4]pyrazole [1,5-a]pyrazine-10-yl) pyrazole [1,5-a]pyridine-7-nitrile] | – | – | IC50 (human TLR8; HEK-Blue hTLR8 IC50 (µM)): > 0.1 µM; IC50 (human TLR7; HEK-Blue hTLR7 IC50 (µM)): > 0.05 µM
5 | C[C@@H]1CN(c2ccc(C#N)n3ncc(F)c23)Cc2c3c(nn21)CN(CC(N)=O)[C@@H](C)C3 [Example I-99, 2-((4R,9S)-2-(7-cyanide-3-fluoropyridox and [1,5-a]pyridox-4-base)-4,9-dimethyl-1,2,3,4,9, 10-hydropyridox [3', 4': 3, 4]pyridoz and [1, 5]pyridoxine-8 (7H)-Base) acetylamine] | > 0.1 µM | < 0.05 µM | –
6 | C[C@@H]1CN(c2ccc(C#N)n3ncc(F)c23)Cc2c3c(nn21)CN(CC(=O)N[C@H]1CNC[C@H]1F)[C@@H](C)C3 [Example I-106, 2-((4R,9S)-2-(7-cyano-3-fluoropyrazolo[1,5-a]pyridin-4-yl)-4,9-dimethyl-1,2,3,4,9,10-hexahydropyrido[3',4':3,4]pyrazolo[1,5-a]pyrazin-8(7H)-yl)-N-((3S,4R)-4-fluoropyrrolidin-3-yl)acetamide] | < 0.1 µM | < 0.05 µM | –
7 | C[C@@H]1CN(c2ccc(C#N)n3ncc(F)c23)Cc2c3c(nn21)CN(C1CC(O)C1)[C@@H](C)C3 (stereo partly drawn) [Example I-111, 3-Fluoro-4-((4R, 9S)-8-(3-hydroxycyclobutyl)-4,9-dimethyl-3,4,7,8,9, 10-hexahydropyridine [3 ', 4 ': 3, 4]pyrazole [1,5-a]pyrazine-2 (1 H) -yl) pyrazole [1,5-a] pyridine-7-nitrile] | – | – | IC50 (human TLR8; HEK-Blue hTLR8 IC50 (µM)): < 0.1 µM; IC50 (human TLR7; HEK-Blue hTLR7 IC50 (µM)): < 0.05 µM
8 | C[C@@H]1CN(c2ccc(C#N)n3ncc(F)c23)Cc2c3c(nn21)CN(CC(C)(C)O)[C@@H](C)C3 [Example I-117, 3-Fluoro-4-((4R,9S)-8-(2-hydroxy-2-methylpropyl)-4,9-dimethyl-3,4,7,8,9,10-hexahydropyrido[3',4':3,4]pyrazolo[1,5-a]pyrazin-2(1H)-yl)pyrazolo[1,5-a]pyridine-7-carbonitrile] | < 0.1 µM | < 0.05 µM | –
9 | C[C@@H]1CN(c2ccc(C#N)n3ncc(F)c23)Cc2c3c(nn21)CN(S(=O)(=O)CCN(C)C)[C@@H](C)C3 [Example I-118] | < 0.1 µM | < 0.05 µM | –
10 | COCCN1Cc2nn3c(c2C[C@@H]1C)CN(c1ccc(C#N)n2ncc(F)c12)C[C@H]3C [Example I-125, 3-Fluoro-4-((4R,9S)-8-(2-methoxyethyl)-4,9-dimethyl-3,4,7,8,9,10-hexahydropyridine [3 ', 4 ': 3, 4]pyrazole [1,5-a]pyrazine-2(1H)-yl) pyrazole[1,5-a] pyridine-7-caronitrile] | – | – | IC50 (human TLR8; read-out: HEK-Blue hTLR8 IC50): < 0.1 µM; IC50 (human TLR7; read-out: HEK-Blue hTLR7 IC50): < 0.05 µM

More lines, main results first:

Row | IC50 (human TLR8; [1]) | IC50 (human TLR7; [2]) | SMILES | also measured
11 | > 0.1 µM | > 0.05 µM | C[C@@H]1CN(c2ccc(C#N)n3ncc(F)c23)Cc2c3c(nn21)CNC(C(C)(C)O)C3 (stereo partly drawn) [Example I-74, 3-Fluoro-4-((4R)-9-(2-hydroxypropan-2-yl)-4-methyl-3,4,7,8,9,10-hexahydropyrido [3',4':3,4]pyrazolo[1,5-a]pyrazin-2(1H)-yl)pyrazolo[1,5-a]pyridine-7-carbonitrile] | –
12 | > 0.1 µM | > 0.05 µM | C[C@H]1CN(c2ccc(C#N)n3ncc(F)c23)Cc2c3c(nn21)CNCC3 [Example I-76, (S)-3-Fluoro-4-(4-methyl-3,4,7,8,9,10-hexahydropyrido[3',4':3,4]pyrazolo[1,5-a]pyrazin-2(1H)-yl)pyrazolo[1,5-a]pyridine-7-carbonitrile] | –
13 | < 0.1 µM | > 0.05 µM | C[C@@H]1CN(c2ccc(C#N)n3ncc(F)c23)Cc2c3c(nn21)CN[C@@H](CO)C3 [Example I-77, 3-Fluoro-4-((4R,9R)-9-(hydroxymethyl)-4-methyl-3,4,7,8,9,10-hexahydropyrido [3',4':3,4]pyrazolo[1,5-a]pyrazin-2(1H)-yl)pyrazolo[1,5-a]pyridine-7-carbonitrile] | –
14 | < 0.1 µM | < 0.05 µM | C[C@@H]1CN(c2ccc(C#N)n3ncc(F)c23)Cc2c3c(nn21)CNC(Cc1ccn[nH]1)C3 (stereo partly drawn) [Example I-79, 4-((4R)-9-((1H-pyrazol-5-yl)methyl)-4-methyl-3,4,7,8,9,10-hexahydropyrido[3',4':3,4]pyrazolo[1,5-a]pyrazin-2(1H)-yl)-3-fluoropyrazolo[1,5-a]pyridine-7-carbonitrile] | –
15 | > 0.1 µM | < 0.05 µM | COC[C@H]1Cc2c(nn3c2CN(c2ccc(C#N)n4ncc(F)c24)C[C@H]3C)CN1 [Example I-82, 3-Fluoro-4-((4R,9R)-9-(methoxymethyl)-4-methyl-3,4,7,8,9,10-hexahydropyrido [3',4':3,4]pyrazolo[1,5-a]pyrazin-2(1H)-yl)pyrazolo[1,5-a]pyridine-7-carbonitrile] | –
16 | < 0.1 µM | > 0.05 µM | COC[C@@H]1Cc2c(nn3c2CN(c2ccc(C#N)n4ncc(F)c24)C[C@H]3C)CN1 [Example I-85, 3-Fluoro-4-((4R,9S)-9-(methoxymethyl)-4-methyl-3,4,7,8,9,10-hexahydropyrido [3',4':3,4]pyrazolo[1,5-a]pyrazin-2(1H)-yl)pyrazolo[1,5-a]pyridine-7-carbonitrile] | –
